Results on 13 compounds are retold here after ChEMBL document CHEMBL1201862, “PubChem BioAssay data set” (2004).

Test systems include T47D; SK-MEL-2; LOX IMVI; BT-549; NCI-H226; UACC-257; MDA-MB-435; DU-145; TK-10; PC-3; MDA-MB-231; Malme-3M; M14; U-251; COLO 205; Hs-578T.
Experiment in all cases: NCI-60 cell line screen, 48 h

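How tested: cells in 96-well plates exposed to compound for 48 hours at five concentrations. Abbreviation: GI50, concentration required for 50% inhibition of growth.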 The source made the active and inactive calls. No stated cut-off is given here; in the data, active = GI50 up to about 1.1 µM and inactive = higher.

For the compound `CC(=O)Nc1ccc(/C=C/C(=O)N2CC(CCl)c3c2cc(N)c2ccccc32)cc1` (stereo not given), the GI50 in the assay on T47D is 0.01 µM (active); in the assay on SK-MEL-2, < 0.005 µM (active); in the assay on LOX IMVI, < 0.005 µM (active); in the assay with BT-549, 0.00624 µM (active); with NCI-H226, < 0.005 µM (active); in the assay on UACC-257, 0.0156 µM (active). Moreover, the GI50 is 0.00767 µM (active) with MDA-MB-435; < 0.005 µM (active) in the assay with DU-145; < 0.005 µM (active) in the assay with TK-10; < 0.005 µM (active) in the assay with PC-3; < 0.005 µM (active) in the assay on MDA-MB-231; < 0.005 µM (active) with Malme-3M. The GI50 in the assay on M14 is < 0.005 µM (active); in the assay on U-251 it was < 0.005 µM (active); with COLO 205, 0.00893 µM (active).
On to `C/C(=C\c1ccc(Cl)cc1)C(C)(C)C(=O)O`, for which the GI50 in the assay with T47D, in the assay with SK-MEL-2, with Hs-578T, in the assay on BT-549, in the assay with NCI-H226 and in the assay with UACC-257 was > 100 µM (inactive) in each case. The GI50 in the assay with MDA-MB-435, in the assay with DU-145, in the assay with TK-10, in the assay with PC-3, in the assay with MDA-MB-231 and in the assay with Malme-3M was > 100 µM (inactive) each time. Further, the GI50 with M14, with U-251 and in the assay with COLO 205 was > 100 µM (inactive) in each case.
Take `CN1C[C@H]2[C@@H](C1=O)[C@H](c1ccccc1)ON2C`: the GI50 in the assay with T47D, in the assay on SK-MEL-2, in the assay on Hs-578T, in the assay with LOX IMVI, in the assay on NCI-H226 and with UACC-257 was > 100 µM (inactive) each time. In addition, the GI50 in the assay with MDA-MB-435, in the assay on DU-145, in the assay on TK-10, in the assay with PC-3, in the assay with MDA-MB-231 and with M14 was > 100 µM (inactive) throughout. For the same compound, the GI50 in the assay with U-251 and with COLO 205 was > 100 µM (inactive) throughout.
As for `CN(CCO)CCC1COc2ccccc2O1` (stereo not given), the GI50 in the assay on T47D, in the assay with SK-MEL-2, in the assay on Hs-578T, in the assay with LOX IMVI, in the assay on NCI-H226 and with MDA-MB-435 was > 10 µM (inactive) throughout. Moreover, the GI50 with DU-145, with TK-10, in the assay on PC-3, in the assay with MDA-MB-231, in the assay with Malme-3M and in the assay on M14 was > 10 µM (inactive) in each case. The GI50 in the assay with U-251 and in the assay with COLO 205 was > 10 µM (inactive) each time.
In the case of `CCCCCCCC/C=C\CCCCCCCCNc1ccn(C2OC(COP(=O)(O)OC3CC(n4cc(F)c(=O)[nH]c4=O)OC3CO)C(O)C2O)c(=O)n1` (stereo not given), the GI50 with T47D is 36.3 µM (inactive); in the assay with SK-MEL-2 it was > 100 µM (inactive); with Hs-578T it was > 100 µM (inactive); with LOX IMVI it was 0.122 µM (active); in the assay with BT-549 it was 20.9 µM (inactive); in the assay with NCI-H226, > 28.4 µM (inactive). In addition, the GI50 with UACC-257 is > 37.7 µM (inactive); in the assay with MDA-MB-435, 40.8 µM (inactive); with DU-145, 0.159 µM (active); with TK-10, > 100 µM (inactive); in the assay on PC-3, 28.7 µM (inactive); with MDA-MB-231 it was > 100 µM (inactive). Further, the GI50 was 13.2 µM (inactive) in the assay on Malme-3M, 0.315 µM (active) in the assay on M14, 2.89 µM (inactive) in the assay with U-251 and > 47.3 µM (inactive) in the assay on COLO 205.
As to `O=C1CSC(c2ccccc2)N1c1ccc(-c2ccc(-n3c(-c4ccccc4)nc4ccccc4c3=O)cc2)cc1` (stereo not given), the GI50 in the assay with T47D was 25 µM (inactive); in the assay on SK-MEL-2, 25.5 µM (inactive); with Hs-578T, > 100 µM (inactive); in the assay on LOX IMVI, 50.7 µM (inactive); with BT-549, 43.3 µM (inactive); in the assay with UACC-257 it was > 100 µM (inactive). For the same compound, the GI50 in the assay with MDA-MB-435 is 49.8 µM (inactive); in the assay on DU-145 it was 85.1 µM (inactive); in the assay on TK-10, 57.9 µM (inactive); in the assay on PC-3 it was 37.9 µM (inactive); in the assay with MDA-MB-231, 40.9 µM (inactive); in the assay on Malme-3M it was 35.4 µM (inactive). Further, the GI50 in the assay with M14 was 50 µM (inactive); with U-251, 56.9 µM (inactive); in the assay on COLO 205, 38.2 µM (inactive).
For `CC1=C2C(=C[C@H]3[C@]4(C)CCCC(C)(C)[C@H]4CC[C@]34O[C@H]24)OC1=O`, the GI50 with SK-MEL-2, in the assay with BT-549, in the assay with NCI-H226, in the assay on UACC-257, in the assay on MDA-MB-435 and in the assay with DU-145 was > 100 µM (inactive) in each case. Also, the GI50 with TK-10, in the assay with PC-3, in the assay with MDA-MB-231, with Malme-3M, in the assay on M14 and with U-251 was > 100 µM (inactive) each time. For the same compound, the GI50 with COLO 205 is > 100 µM (inactive).
As for `N#CSCC1COc2ccccc2O1` (stereo not given), the GI50 in the assay with T47D was > 10 µM (inactive); with SK-MEL-2, > 10 µM (inactive); in the assay with Hs-578T it was > 10 µM (inactive); in the assay with LOX IMVI, 3.78 µM (inactive); with NCI-H226, 6.11 µM (inactive); in the assay on MDA-MB-435, > 10 µM (inactive). Further, the GI50 in the assay with DU-145 is > 10 µM (inactive); with TK-10, > 10 µM (inactive); in the assay with PC-3, > 10 µM (inactive); in the assay with MDA-MB-231 it was > 10 µM (inactive); with Malme-3M, > 10 µM (inactive); in the assay with M14 it was 8.39 µM (inactive). In addition, the GI50 in the assay with U-251 and with COLO 205 was > 10 µM (inactive) throughout.
With `CC1(C)CC(=O)c2c(nc3ccc4ccccc4c3c2-c2ccc(NC(=O)CCC(=O)Nc3ccc(-c4c5c(nc6ccc7ccccc7c46)CC(C)(C)CC5=O)cc3)cc2)C1`, the GI50 in the assay on T47D, in the assay on SK-MEL-2, in the assay with Hs-578T, in the assay with LOX IMVI, in the assay with NCI-H226 and in the assay on UACC-257 was > 100 µM (inactive) each time. The GI50 with MDA-MB-435, with DU-145, in the assay on TK-10, with PC-3, in the assay with MDA-MB-231 and in the assay with M14 was > 100 µM (inactive) each time. In addition, the GI50 in the assay on U-251 and with COLO 205 was > 100 µM (inactive) each time.
As to `CCOP(=O)(OCC)/C(C#N)=C/c1cccn1Cc1ccccc1`, the GI50 was 16.9 µM (inactive) in the assay with T47D; 21.3 µM (inactive) in the assay on SK-MEL-2; 20.8 µM (inactive) in the assay with LOX IMVI; 32.3 µM (inactive) with BT-549; 20.7 µM (inactive) with NCI-H226; 39.5 µM (inactive) with UACC-257. The GI50 is 19.4 µM (inactive) with MDA-MB-435; 43.2 µM (inactive) in the assay with DU-145; 40.9 µM (inactive) in the assay on TK-10; 31.9 µM (inactive) in the assay on PC-3; 22.4 µM (inactive) in the assay on MDA-MB-231; 32.3 µM (inactive) in the assay on Malme-3M. Moreover, the GI50 with M14 is 48.1 µM (inactive); with U-251 it was 22.6 µM (inactive); in the assay with COLO 205, 21.5 µM (inactive).
Regarding `COc1cc(C2c3[nH]c4ccccc4c3[C@@H](Nc3ccc(F)cc3)[C@H]3COC(=O)N23)cc(OC)c1O` (stereo not given in full), the GI50 in the assay on T47D is 2.25 µM (inactive); in the assay on Hs-578T, 0.0962 µM (active); with LOX IMVI it was 1.21 µM (inactive); in the assay with BT-549 it was 1.36 µM (inactive); with NCI-H226, 0.815 µM (active); with UACC-257, 3.77 µM (inactive). The GI50 was 2.5 µM (inactive) in the assay on MDA-MB-435; 0.759 µM (active) in the assay with DU-145; 1.97 µM (inactive) in the assay on TK-10; 1.91 µM (inactive) with PC-3; 3.44 µM (inactive) with MDA-MB-231; 2.49 µM (inactive) in the assay on Malme-3M. The GI50 was 2.02 µM (inactive) in the assay with M14 and 1.45 µM (inactive) with U-251.
In the case of `COc1ccc([I+]c2ccc(OC)cc2)cc1`, the GI50 in the assay with T47D is > 95.7 µM (inactive); in the assay on SK-MEL-2 it was > 100 µM (inactive); in the assay with Hs-578T, > 100 µM (inactive); in the assay on LOX IMVI, 28.6 µM (inactive); in the assay on NCI-H226, 32.7 µM (inactive); with UACC-257 it was 11.6 µM (inactive). The GI50 in the assay with MDA-MB-435 was > 56.5 µM (inactive); in the assay with DU-145 it was 99.5 µM (inactive); in the assay with TK-10 it was > 100 µM (inactive); with PC-3, > 60 µM (inactive); with MDA-MB-231, > 100 µM (inactive); with Malme-3M, 20.2 µM (inactive). Also, the GI50 in the assay with M14 is 54.8 µM (inactive); with U-251, 34 µM (inactive); in the assay on COLO 205 it was 60.5 µM (inactive).
Take `CC1(C)N=C(N)N=C(N)N1c1ccc(Cl)cc1`: the GI50 in the assay on T47D is 35.1 µM (inactive); with SK-MEL-2 it was 10 µM (inactive); with Hs-578T, > 100 µM (inactive); in the assay with LOX IMVI it was 1.34 µM (inactive); in the assay on BT-549, 26.2 µM (inactive); with NCI-H226, 85.5 µM (inactive). Besides, the GI50 is 26.5 µM (inactive) in the assay with UACC-257; 1.79 µM (inactive) in the assay with MDA-MB-435; 7.11 µM (inactive) in the assay on DU-145; 48.8 µM (inactive) with TK-10; 1.88 µM (inactive) in the assay with PC-3; 21.7 µM (inactive) in the assay with MDA-MB-231. Besides, the GI50 with Malme-3M was 26.2 µM (inactive); in the assay on M14 it was 4.88 µM (inactive); with U-251 it was 1.3 µM (inactive); in the assay with COLO 205, 7.06 µM (inactive).
